Results as given in US20130085133A1, “ANTI-VIRAL TREATMENT AND ASSAY TO SCREENFOR ANTI-VIRAL AGENT” (Sourthern Research Institute Office of Commercialization …, priority 2010, published 2013).

Key:
[1] = cytotoxicity assay (percent viability of HEp-2 cells, Cell Titer-Glo); conditions: human
Description: Test compounds were evaluated by measuring their antiviral activity, cell toxicity, and selectivity. Test compounds were serially diluted in a plate to plate matrix or “stacked plate” matrix. All 320 compounds in a source plate were diluted together resulting in a 10 point dose response dilution series. It was visualized as a serial dilution series proceeding vertically through a stack of plates with the high dose plate on top and the low dose plate on the bottom.
Following the six day incubation period, the assay plates were equilibrated to room temperature for 30 min and an equal volume (30 μL) of Cell Titer-Glo reagent (Promega Inc.) was added to each well using a WellMate (Matrix, Hudson, N.H.) and plates were incubated for an additional 10 min at room temperature. At the end of the incubation, luminescence was measured using a Perkin Elmer Envision™ multi-label reader (PerkinElmer, Wellesley, Mass.) with an integration time of 0.1 s.
Data was analyzed using ActivityBase software (IDBS, Inc, Guilford, UK). thirty two control wells containing cells only and twenty four wells containing cells and virus were included on each assay plate and used to calculate Z′ value for each plate and to normalize the data on a per plate basis. […] Eight ribavirin positive control wells were included on each plate for quality control purposes, but were not used in Z′ calculations. […] In the toxicity assay, results are described as percent viability and the calculation is the same.
An EC50 (for CPE inhibition) and IC50 (for cell viability) were calculated for each substance using the 4 parameter Levenburg-Marquardt algorithm with parameter A locked at 0 and parameter B locked at 100. Standard deviation, normalized chi2 and hill slope were used to evaluate the curves. Values were not extrapolated beyond the tested range of concentrations.

[2] = test system: respiratory syncytial virus (RSV) strain Long; assay: microbe, parasite or virus in culture; conditions: human respiratory syncytial virus, HEp-2, 144 h

| Compound | EC50 [2] | CC50 at 6 days ([1]; HEp-2 cells) | CC50 at 6 days [1] [µg/mL] |
| --- | --- | --- | --- |
| CNc1ncnc2c1ncn2[C@@H]1C[C@H](CO)[C@H](O)[C@@H]1O [SRI-4711] | 24.5 µM | > 50 µM |  |
| O=C(Nc1ccc(F)c(Cl)c1)C1CCN(C(=O)c2ccc(Cl)cc2)CC1 [AB00299386] | 12.3 µg/mL | > 25 µg/mL |  |
| Cc1nc(N)sc1-c1csc(Nc2ccccn2)n1 [AB00280085] | 18.9 µg/mL | > 25 µg/mL |  |
| COC(=O)c1c(-c2ccccc2)csc1NC(=O)c1c(-c2ccccc2)noc1C [AB00310910] | 1.15 µg/mL | > 25 µg/mL |  |
| CCn1c(=O)n(CC)c2cc(NC(=O)c3ccccc3Cl)c(Br)cc21 [AB00369510] | 10.4 µg/mL | > 25 µg/mL |  |
| C/C(N)=C(/C#N)C(=O)COC(=O)c1ccccc1SCC(=O)NC1CCCCCCC1 [AB00723775] | 23.4 µM | > 50 µM |  |
| CCOC(=O)C1=C(c2ccccc2)NC(=S)NC1c1ccccc1OCC(=O)Nc1ccccc1 (stereo not shown) [AB00355044] | 6.39 µg/mL | > 25 µg/mL |  |
| O=C(C1CCN(S(=O)(=O)c2ccccc2)CC1)N1CCc2ccccc2C1 [AB00298862] | 20.4 µg/mL | > 25 µg/mL |  |
| O=C(CCNC(=O)c1ccc(Br)cc1)NC1CCCc2ccccc21 (stereo not shown) [AB00739576] | 24.7 µM | > 50 µM |  |
| COc1ccccc1OCC(=O)Nc1ccc(Br)cc1C(=O)O [AB00290004] | 23.2 µg/mL | > 25 µg/mL |  |
| N#Cc1c(Cl)nc(N)c(N)c1C(F)(F)F [AB00430151] | 38.4 µM | > 50 µM |  |
| Cc1cc(C)cc(OCC(O)CNC(C)c2ccccc2)c1 (stereo not shown) [AB00283699] | 12.9 µg/mL | > 25 µg/mL |  |
| O=c1cnnc(N/N=C/c2ccccc2Br)[nH]1 [AB00283422] | 15.8 µg/mL | > 25 µg/mL |  |
| Cc1ccc(-c2csc(NC(=O)COC(=O)c3cccc(Cl)c3)n2)cc1C [AB00720414] | 49.1 µM | > 50 µM |  |
| COc1ccc(S(=O)(=O)N2CCC(C(=O)N3CCN(c4ccccc4)CC3)CC2)cc1Cl [AB00362388] | 17 µg/mL | > 25 µg/mL |  |
| CN(C)C(=O)Oc1ccc2ccccc2c1Cl [AB00339302] | 12.3 µg/mL |  | > 25 |
| CCOc1ccccc1/C=C(\C#N)c1nc2sc3c(c2c(=O)[nH]1)CCCC3 [AB00726710] | 30.9 µM | > 50 µM |  |
| Cc1ccc(-c2csc3ncn(Cc4cc(=O)oc5cc(Br)ccc45)c(=O)c23)cc1 [AB00785889] | 23.4 µM | > 50 µM |  |
| NC(=O)c1ncn([C@@H]2O[C@H](CO)[C@@H](O)[C@H]2O)n1 [AB00430481] | 38.8 µM | > 50 µM |  |

| Compound | EC50 [2] | CC50 at 6 days ([1]; HEp-2 cells) | CC50 at 6 days [1] [µg/mL] |
| --- | --- | --- | --- |
| CNc1cc(N2CCCC2)ccc1[N+](=O)[O-] [AB00322577] | 18.7 µg/mL | > 25 µg/mL |  |
| CNC(=O)Nc1ccccc1C(=O)Nc1ccc(C)cc1 [AB00290142] | 19.4 µg/mL | > 25 µg/mL |  |
| CCN(c1ccccc1)S(=O)(=O)c1cccc(C(=O)Nc2nccs2)c1 [AB00739796] | 22.2 µM | > 50 µM |  |
| CCOC(=O)C1=C(C)NC(C)=C(C(=O)OCC)C1C(=O)OCC(=O)Nc1c(Cl)cccc1Cl [AB00712684] | 21.9 µM | > 50 µM |  |
| Oc1cccc2ccc(N3CCOCC3)nc12 [AB00275625] | 15.2 µg/mL | > 25 µg/mL |  |
| COc1ccc(NC(=O)CN2c3cccc4cccc(c34)S2(=O)=O)c(OC)c1 [AB00293237] | 10.3 µg/mL | > 25 µg/mL |  |
| Oc1ccc(O)cc1 [AB00053361] | 47.9 µM | > 50 µM |  |
| CSc1ccc(Cl)c(C(=O)Nc2ccc(Cc3ccccn3)cc2)c1 [AB00369798] | 11.6 µg/mL | > 25 µg/mL |  |
| COC(=O)c1c(-c2ccc(C)c(C)c2)csc1NC(=O)CCCC(=O)O [AB00309859] | 6.84 µg/mL | > 25 µg/mL |  |
| COc1ccc(NC(=O)c2ccc(C)c(S(=O)(=O)Nc3ccccc3C)c2)cc1OC [AB00364640] | 11.5 µg/mL | > 25 µg/mL |  |
| Cn1c(SC/C=C/c2ccccc2)nnc1-c1cccs1 [AB00318335] | 24.2 µg/mL | > 25 µg/mL |  |
| CCC(C)N(C(=O)c1cc(Cl)ccc1OC)C(C)CC (stereo not shown) [AB00310767] | 15 µg/mL | > 25 µg/mL |  |
| O=C(O)c1ccc(-c2cccc(Cl)c2Cl)o1 [AB00287600] | 12.7 µg/mL | > 25 µg/mL |  |
| CCOC(=O)c1ccc(NC(=O)CN(c2ccccc2Br)S(C)(=O)=O)cc1 [AB00282821] | 14.5 µg/mL | > 25 µg/mL |  |
| c1coc(-c2nn3c(Cn4nnc5ccccc54)nnc3s2)c1 [AB00370063] | 1.97 µg/mL | > 25 µg/mL |  |
| COc1ccc2cc(Br)ccc2c1CO [AB00309550] | 16.3 µg/mL | > 25 µg/mL |  |
| COc1ccc(-n2nnnc2SCCO)cc1 [AB00364099] | 19.2 µg/mL | > 25 µg/mL |  |
| CCOC(=O)c1ccc(NC(=O)Nc2ccccc2OC)cc1 [AB00365318] | 11.6 µg/mL | > 25 µg/mL |  |

More lines, main results first:

| EC50 [2] | Compound | CC50 at 6 days ([1]; HEp-2 cells) | CC50 at 6 days [1] [µg/mL] |
| --- | --- | --- | --- |
| 7.64 µg/mL | COc1cc(-c2nnc(SCc3cc(Cl)cc(Cl)c3)o2)cc(OC)c1OC [AB00292171] | > 25 µg/mL |  |
| 22.2 µg/mL | COc1ccc(-c2cc(C(=O)O)c3cc(Br)ccc3n2)c(OC)c1 [AB00313218] | > 25 µg/mL |  |
| 6.07 µM | COc1cccc(Nc2nnc(SCC(=O)/C(C#N)=C(\C)N)s2)c1 [AB00767910] | > 50 µM |  |
| 16.4 µg/mL | Cc1ccc(-c2nc3cc(N)ccc3o2)cc1Br [AB00076694] | > 25 µg/mL |  |
| 12.1 µg/mL | COc1ccc(C(=O)N2CCC(C(=O)Nc3cccc(C(F)(F)F)c3)CC2)cc1 [AB00298665] | > 25 µg/mL |  |
| 18 µg/mL | CCc1c(C)sc(NC(=O)c2ccc(C)o2)c1C(N)=O [AB00313012] | > 25 µg/mL |  |
| 43.3 µM | O=C(COC(=O)c1c2c(nc3ccccc13)/C(=C/c1cccs1)CC2)NCC(F)(F)F [AB00725240] | > 50 µM |  |
| 12 µM | O=C(COc1ccc(Cl)c(Cl)c1)Nc1cccc(C(=O)NC2CC2)c1 [AB00784993] | > 50 µM |  |
| 18.6 µg/mL | Cc1cc(C)cc(NC(=O)c2cccc(NC(=O)c3ccco3)c2)c1 [AB00293678] | > 25 µg/mL |  |
| 12 µg/mL | C=CCNc1cc(N2CCN(C(=O)c3ccc(Cl)cc3)CC2)ccc1[N+](=O)[O-] [AB00315446] | > 25 µg/mL |  |
| 27.8 µM | O=C(CCc1ccccc1)Nc1sc2c(c1C(=O)O)CCC2 [AB00877405] | > 50 µM |  |
| 10.6 µg/mL | Fc1cccc(NC(=S)NNC(=S)Nc2ccc(Cl)cc2)c1 [AB00348154] | > 25 µg/mL |  |
| 21.6 µg/mL | COc1ccc(-c2cn3cccnc3n2)cc1 [AB00288908] |  |  |
| 13.3 µg/mL | CC1(C)Cc2c(sc(NC(=O)c3ccccc3Br)c2C(N)=O)CO1 [AB00363547] | > 25 µg/mL |  |
| 33.7 µM | CNc1ncnc2c1ncn2[C@H]1C[C@@H](CO)[C@H](O)[C@@H]1O [AB00430484] | > 50 µM |  |
| 19.6 µg/mL | O=C(Nc1ccccc1Br)c1cnccn1 [AB00310846] | > 25 µg/mL |  |
| 31.9 µM | Cc1ccc2c(Cn3cnc4scc(-c5ccc(Br)cc5)c4c3=O)cc(=O)oc2c1 [AB00796961] | > 50 µM |  |
| 20.2 µg/mL | O=C(Nc1c(F)cc(F)cc1Br)c1ccc(Cl)s1 [AB00366410] | > 25 µg/mL |  |
